This is an account of results in patent publication US20230077362A1 (CORTEVA AGRISCIENCE LLC, priority 2019, published 2023).

The subject of experiment [1] is Beet Armyworm (Spodoptera exigua) ("BAW"), second instar larvae. In words: Bioassay on beet armyworm (BAW), 128-well diet tray assay. The format is in vivo. The conditions noted are these: Spodoptera exigua. The protocol:
(§1) Certain molecules disclosed in this document were tested against BAW and CL using procedures described in the following examples. In the reporting of the results, the “BAW & CL Rating Table” was used (See Table Section).
(§2) Trays were covered with a clear self-adhesive cover and held at 25° C., 14:10 light-dark cycle for five to seven days. Percent mortality was recorded for the larvae in each well; activity in the eight wells was then averaged. The results are indicated in the table entitled “Table ABC: Biological Results” (See Table Section).

Experiment [2] has as its system Cabbage Looper (Trichoplusia ni) ("CL"), second instar larvae. In words: Bioassay on cabbage looper (CL), 128-well diet tray assay. The format is in vivo. The following applies: Trichoplusia ni. As to the method:
as §1, §2

The mark [3] stands for this setting: read-out: BAW (Biological Results, rating).
Where [4] appears, read: read-out: CL (Biological Results, rating).

The structures appear in SMILES notation. Like-named read-outs stand apart in the source and are kept apart here.

With `Cc1ccc(C(F)(F)F)c(N2C(=O)CS/C2=N\C(=O)NC(C)Cc2ccc(-c3ncn(-c4ccc(OC(F)(F)F)cc4)n3)cc2)c1` (centres unmarked) [Compound H4], the pest or weed control at 50 µg/cm2 in experiment [1] (setting [3]) and in experiment [2] (setting [4]) was 50 to 100% in each case. On to `O=C(/N=C1\SCC(=O)N1c1cc(Cl)ccc1C(F)(F)F)NCC(F)c1ccc(-c2ncn(-c3ccc(OC(F)(F)F)cc3)n2)cc1` (centres unmarked) [Compound H6], for which the pest or weed control at 50 µg/cm2 in experiment [1] (setting [3]) and in experiment [2] (setting [4]) was 50 to 100% in each case. `N#CC(CNC(=O)/N=C1\SCC(=O)N1c1cc(Cl)ccc1C(F)(F)F)c1ccc(-c2ncn(-c3ccc(OC(F)(F)F)cc3)n2)cc1` (centres unmarked) [Compound H8, (Z)-1-(3-(5-chloro-2-(trifluoromethyl)phenyl)-4-oxothiazolidin-2-ylidene)-3-(2-cyano-2-(4-(1-(4-(trifluoromethoxy)phenyl)-1H-1,2,4-triazol-3-yl)phenyl)ethyl)urea]: the pest or weed control at 50 µg/cm2 in experiment [1] (setting [3]) and in experiment [2] (setting [4]) was 50 to 100% in each case.

Regarding `O=C(/N=C1\SCC(=O)N1c1ccccc1C(F)(F)F)Nc1ccc(-c2ncn(-c3ccc(OC(F)(F)F)cc3)n2)cc1` [Compound H10], the pest or weed control at 50 µg/cm2 in experiment [1] (setting [3]) and in experiment [2] (setting [4]) was 50 to 100% each time.

Take `Cc1ccc(CC(F)(F)F)c(N2C(=O)CS/C2=N\C(=O)NCCc2ccc(-c3ncn(-c4ccc(OC(F)(F)F)cc4)n3)cc2)c1` [Compound H12]: the pest or weed control at 50 µg/cm2 in experiment [1] (setting [3]) and in experiment [2] (setting [4]) was 50 to 100% in each case.

For `Cc1ccc(CC(F)(F)F)c(N2C(=O)CS/C2=N\C(=O)NCC(F)c2ccc(-c3ncn(-c4ccc(OC(F)(F)F)cc4)n3)cc2)c1` (centres unmarked) [Compound H13], the pest or weed control at 50 µg/cm2 in experiment [1] (setting [3]) and in experiment [2] (setting [4]) was 50 to 100% each time.

As to `COc1ccc(CC(F)(F)F)c(N2C(=O)CS/C2=N\C(=O)NC(C)Cc2ccc(-c3ncn(-c4ccc(OC(F)(F)F)cc4)n3)cc2)c1` (centres unmarked) [Compound H15], the pest or weed control at 50 µg/cm2 in experiment [1] (setting [3]) and in experiment [2] (setting [4]) was 50 to 100% each time. In the case of `COc1ccc(CC(F)(F)F)c(N2C(=O)CS/C2=N\C(=O)NCC(F)c2ccc(-c3ncn(-c4ccc(OC(F)(F)F)cc4)n3)cc2C)c1` (centres unmarked) [Compound H16], the pest or weed control at 50 µg/cm2 in experiment [1] (setting [3]) and in experiment [2] (setting [4]) was 50 to 100% throughout. For `COc1ccc(CC(F)(F)F)c(N2C(=O)CS/C2=N\C(=O)NCC(F)c2ccc(-c3ncn(-c4ccc(OC(F)(F)F)cc4)n3)c(OC)c2)c1` (centres unmarked) [Compound H17], the pest or weed control at 50 µg/cm2 in experiment [1] (setting [3]) and in experiment [2] (setting [4]) was 50 to 100% throughout. For the molecule `Cc1ccc(C(C)C)c(N2C(=O)CS/C2=N\C(=O)Nc2ccc(-c3ncn(-c4ccc(OC(F)(F)C(F)(F)F)cc4)n3)c(C)c2)c1` [Compound J2], the pest or weed control at 50 µg/cm2 in experiment [1] (setting [3]) and in experiment [2] (setting [4]) was 50 to 100% each time. With `Cc1ccc(C(C)C)c(N2C(=O)CS/C2=N\C(=O)Nc2ccc(-c3ncn(-c4ccc(C(F)(F)F)cc4)n3)c(C)c2)c1` [Compound J4, (Z)-1-(3-(2-Isopropyl-5-methylphenyl)-4-oxothiazolidin-2-ylidene)-3-(3-methyl-4-(1-(4-(trifluoromethyl)phenyl)-1H-1,2,4-triazol-3-yl)phenyl)urea], the pest or weed control at 50 µg/cm2 in experiment [1] (setting [3]) and in experiment [2] (setting [4]) was 50 to 100% throughout. On to `COc1ccc(C(C)C)c(N2C(=O)CS/C2=N\C(=O)Nc2ccc(-c3ncn(-c4ccc(C(F)(F)F)cc4)n3)c(C)c2)c1` [Compound J5, (Z)-1-(3-(2-Isopropyl-5-methoxyphenyl)-4-oxothiazolidin-2-ylidene)-3-(3-methyl-4-(1-(4-(trifluoromethyl)phenyl)-1H-1,2,4-triazol-3-yl)phenyl)urea], for which the pest or weed control at 50 µg/cm2 in experiment [1] (setting [3]) and in experiment [2] (setting [4]) was 50 to 100% each time. Take `COc1ccc(C(C)C)c(N2C(=O)CS/C2=N\C(=O)Nc2ccc(-c3ncn(-c4ccc(OC(F)(F)F)cc4)n3)cc2OC)c1` [Compound J6, (Z)-1-(3-(2-Isopropyl-5-methoxyphenyl)-4-oxothiazolidin-2-ylidene)-3-(2-methoxy-4-(1-(4-(trifluoromethoxy)phenyl)-1H-1,2,4-triazol-3-yl)phenyl)urea]: the pest or weed control at 50 µg/cm2 in experiment [1] (setting [3]) and in experiment [2] (setting [4]) was 50 to 100% throughout. In the case of `COc1ccc(C(C)C)c(N2C(=O)CS/C2=N\C(=O)Nc2ccc(-c3ncn(-c4ccc(OC(F)(F)C(F)(F)F)cc4)n3)c(C)c2)c1` [Compound J7, (Z)-1-(3-(2-Isopropyl-5-methoxyphenyl)-4-oxothiazolidin-2-ylidene)-3-(3-methyl-4-(1-(4-(perfluoroethoxy)phenyl)-1H-1,2,4-triazol-3-yl)phenyl)urea], the pest or weed control at 50 µg/cm2 in experiment [1] (setting [3]) and in experiment [2] (setting [4]) was 50 to 100% each time. In the case of `COc1ccc(C(C)C)c(N2C(=O)CS/C2=N\C(=O)Nc2ccc(-c3ncn(-c4ccc(C(F)(F)F)cc4)n3)cc2C)c1` [Compound J8, (Z)-1-(3-(2-Isopropyl-5-methoxyphenyl)-4-oxothiazolidin-2-ylidene)-3-(2-methyl-4-(1-(4-(trifluoromethyl)phenyl)-1H-1,2,4-triazol-3-yl)phenyl)urea], the pest or weed control at 50 µg/cm2 in experiment [1] (setting [3]) and in experiment [2] (setting [4]) was 50 to 100% each time. In the case of `COc1ccc(C(C)C)c(N2C(=O)CS/C2=N\C(=O)Nc2ccc(-c3ncn(-c4ccc(C(F)(F)F)cc4)n3)cc2OC)c1` [Compound J10, (Z)-1-(3-(2-Isopropyl-5-methoxyphenyl)-4-oxothiazolidin-2-ylidene)-3-(2-methoxy-4-(1-(4-(trifluoromethyl)phenyl)-1H-1,2,4-triazol-3-yl)phenyl)urea], the pest or weed control at 50 µg/cm2 in experiment [1] (setting [3]) and in experiment [2] (setting [4]) was 50 to 100% in each case. With `Cc1ccc(OCC(F)(F)F)c(N2C(=O)CS/C2=N\C(=O)Nc2ccc(-c3ncn(-c4ccc(OC(F)(F)F)cc4)n3)cc2O)c1` [Compound J176, (Z)-1-(2-Hydroxy-4-(1-(4-(trifluoromethoxy)phenyl)-1H-1,2,4-triazol-3-yl)phenyl)-3-(3-(5-methyl-2-(2,2,2-trifluoroethoxy)phenyl)-4-oxothiazolidin-2-ylidene)urea], the pest or weed control at 50 µg/cm2 in experiment [1] (setting [3]) fell in the range of 0 to 50%. Regarding `COC(C)c1ccc(C)cc1N1C(=O)CS/C1=N\C(=O)Nc1ccc(-c2ncn(-c3ccc(C(F)(F)F)cn3)n2)cc1C(C)=O` (centres unmarked) [Compound J416, (Z)-1-(2-Acetyl-4-(1-(5-(trifluoromethyl)pyridin-2-yl)-1H-1,2,4-triazol-3-yl)phenyl)-3-(3-(2-(1-methoxyethyl)-5-methylphenyl)-4-oxothiazolidin-2-ylidene)urea], in experiment [2] (read-out: CL rating), the pest or weed control at 50 µg/cm2 was 50 to 100%. `CC(=O)c1cc(-c2ncn(-c3ccc(C(F)(F)F)cn3)n2)ccc1NC(=O)/N=C1\SCC(=O)N1c1cc(C)ccc1COCC(F)(F)F` [Compound J418, (Z)-1-(2-Acetyl-4-(1-(5-(trifluoromethyl)pyridin-2-yl)-1H-1,2,4-triazol-3-yl)phenyl)-3-(3-(5-methyl-2-((2,2,2-trifluoroethoxy)methyl)phenyl)-4-oxothiazolidin-2-ylidene)urea]: the pest or weed control at 50 µg/cm2 in experiment [1] (read-out: BAW rating) was 0 to 50%.

For the molecule `Cc1ccc(OCCC(F)(F)F)c(N2C(=O)CS/C2=N\C(=O)Nc2ccc(-c3cn(-c4ccc(OC(F)(F)F)cc4)nn3)cc2)c1` [Compound J491, (Z)-1-(3-(5-Methyl-2-(3,3,3-trifluoropropoxy)phenyl)-4-oxothiazolidin-2-ylidene)-3-(4-(1-(4-(trifluoromethoxy)phenyl)-1H-1,2,3-triazol-4-yl)phenyl)urea], the pest or weed control at 50 µg/cm2 in experiment [1] (read-out: BAW rating) was 50 to 100%.

`CN(C)c1ccc(C(F)(F)F)c(N2C(=O)CS/C2=N\C(=O)Nc2ccc(-c3cn(-c4ccc(OC(F)(F)F)cc4)nn3)cc2)c1` [Compound J495, (Z)-1-(3-(5-(Dimethylamino)-2-(trifluoromethyl)phenyl)-4-oxothiazolidin-2-ylidene)-3-(4-(1-(4-(trifluoromethoxy)phenyl)-1H-1,2,3-triazol-4-yl)phenyl)urea]: in experiment [1] (read-out: BAW rating), the pest or weed control at 50 µg/cm2 is 0 to 50%. Still for that read-out and setting: the figure for `Cc1ccc(OCCC(F)(F)F)c(N2C(=O)CS/C2=N\C(=O)Nc2ccc(-c3nnc(-c4ccc(OC(F)(F)F)cc4)s3)cc2F)c1` [Compound J501, (Z)-1-(2-Fluoro-4-(5-(4-(trifluoromethoxy)phenyl)-1,3,4-thiadiazol-2-yl)phenyl)-3-(3-(5-methyl-2-(3,3,3-trifluoropropoxy)phenyl)-4-oxothiazolidin-2-ylidene)urea] is 50 to 100%. For `CCOCc1ccc(C)cc1N1C(=O)CS/C1=N\C(=O)Nc1ccc(-c2nnc(-c3ccc(OC(F)(F)F)cc3)s2)cc1F` [Compound J503, (Z)-1-(3-(2-(Ethoxymethyl)-5-methylphenyl)-4-oxothiazolidin-2-ylidene)-3-(2-fluoro-4-(5-(4-(trifluoromethoxy)phenyl)-1,3,4-thiadiazol-2-yl)phenyl)urea], in experiment [2] (read-out: CL rating), the pest or weed control at 50 µg/cm2 is 50 to 100%. Still for that read-out and setting: the figure for `COC(c1ccc(C)cc1N1C(=O)CS/C1=N\C(=O)Nc1ccc(-c2nnc(-c3ccc(OC(F)(F)F)cc3)s2)cc1F)C(F)(F)F` (centres unmarked) [Compound J505, (Z)-1-(2-Fluoro-4-(5-(4-(trifluoromethoxy)phenyl)-1,3,4-thiadiazol-2-yl)phenyl)-3-(3-(5-methyl-2-(2,2,2-trifluoro-1-methoxyethyl)phenyl)-4-oxothiazolidin-2-ylidene)urea] is 50 to 100%.

`O=C(/N=C1\SCC(=O)N1c1cccc(-c2ccccc2)c1)Nc1ccc(-c2ncn(-c3ccc(OC(F)(F)F)cc3)n2)cc1F` [Compound J715, (Z)-1-(3-([1,1′-Biphenyl]-3-yl)-4-oxothiazolidin-2-ylidene)-3-(2-fluoro-4-(1-(4-(trifluoromethoxy)phenyl)-1H-1,2,4-triazol-3-yl)phenyl)urea]: the pest or weed control at 50 µg/cm2 in experiment [1] (read-out: BAW rating) lay in the range of 0 to 50%.
